Experimental data as given in the CheMixHub viscosity set.

Experiment: xn = mol fraction of the nth substance listed

NC=O + CC(O)CO
viscosity [mPa·s], 101 kPa
Details | 293.15 K | 298.15 K | 303.15 K | 308.15 K | 313.15 K | 318.15 K
x1 = 0.0567 | 41.37 | 33.51 | 27.96 | 23 | 18.07 | 14.26
x1 = 0.1191 | 36.96 | 29.71 | 24.4 | 19.81 | 15.28 | 11.93
x1 = 0.1736 | – | 29.68 | – | – | – | –
x1 = 0.1881 | 33.2 | 26.49 | 21.59 | 17.16 | 12.95 | 9.801
x1 = 0.2649 | 29.41 | 23.3 | 18.92 | 14.86 | 10.98 | 8.107
x1 = 0.3159 | – | 22.75 | – | – | – | –
x1 = 0.3409 | 25.85 | 20.41 | 16.5 | 12.9 | 9.425 | 6.875
x1 = 0.4166 | – | 18.75 | – | – | – | –
x1 = 0.4478 | 21.21 | 16.73 | 13.52 | 10.58 | 7.704 | 5.602
x1 = 0.5518 | – | 14.59 | – | – | – | –
x1 = 0.5578 | 16.8 | 13.31 | 10.81 | 8.506 | 6.3 | 4.653
x1 = 0.6017 | – | 13.69 | – | – | – | –
x1 = 0.654 | – | 12.31 | – | – | – | –
x1 = 0.6838 | 12.2 | 9.902 | 8.159 | 6.542 | 5.072 | 3.959
x1 = 0.7347 | – | 10.26 | – | – | – | –
x1 = 0.8117 | – | 8.254 | – | – | – | –
x1 = 0.8295 | 7.586 | 6.35 | 5.433 | 4.647 | 3.789 | 3.144
x1 = 0.8808 | – | 6.511 | – | – | – | –
x1 = 0.8818 | 6.101 | 5.206 | 4.59 | 4.003 | 3.386 | 2.902
x1 = 0.9392 | 4.756 | 4.189 | 3.805 | 3.401 | 2.96 | 2.601
x1 = 0.9434 | – | 4.916 | – | – | – | –

OCCCO + CC(O)CO
viscosity [mPa·s], 101 kPa
Details | x2 = 0.1014 | x2 = 0.2101 | x2 = 0.2999 | x2 = 0.4071 | x2 = 0.5013 | x2 = 0.5925 | x2 = 0.7113 | x2 = 0.8005 | x2 = 0.9208
298.15 K | 42.34 | 42.71 | – | – | 43.62 | 43.82 | 43.95 | 43.88 | –
303.15 K | – | 34.03 | 34.2 | 34.39 | 34.49 | 34.55 | 34.49 | 34.36 | 34.11
308.15 K | 27.18 | 27.11 | 27.05 | – | – | – | 26.36 | 26.06 | 25.59

CN1CCC[C@H]1c1cccnc1 + CCC(C)=O
viscosity [mPa·s], 101 kPa
Details | x1 = 0.1253 | x1 = 0.2463 | x1 = 0.3642 | x1 = 0.4878 | x1 = 0.6133 | x1 = 0.7374 | x1 = 0.883
298.15 K | 0.5454 | 0.7187 | 0.9572 | 1.246 | 1.646 | 2.2 | 3.069
323.15 K | 0.4075 | 0.5104 | 0.6647 | 0.8283 | 1.041 | 1.316 | 1.767

OCCCO + CCC(C)=O
Details | viscosity [mPa·s]
318.15 K, 100 kPa, x1 = 0.7989 | 6.885

NC=O + CCC(C)O
101 kPa
Details | viscosity [mPa·s]
293.15 K, x1 = 0.5093 | 4.025
318.15 K, x1 = 0.9024 | 2.175

CN1CCC[C@H]1c1cccnc1 + CCCC(=O)O
viscosity [mPa·s], 101 kPa
Details | 298.15 K | 323.15 K
x1 = 0.099 | 11.74 | 5.188
x1 = 0.1992 | 48.69 | 14.24
x1 = 0.2139 | 52.39 | 14.9
x1 = 0.2277 | 53.82 | 15.04
x1 = 0.234 | 53.97 | 15.13
x1 = 0.2478 | 54.2 | 14.99
x1 = 0.2707 | 53.87 | 14.89
x1 = 0.2993 | 50.77 | 13.9
x1 = 0.3872 | 29.61 | 9.46
x1 = 0.5011 | 17.55 | –
x1 = 0.6081 | 11.63 | 4.462
x1 = 0.697 | 8.404 | 3.766
x1 = 0.804 | 6.265 | 2.983
x1 = 0.8928 | 5.192 | 2.579

CCOC(=O)CCC(=O)OCC + CCCC(=O)OCC
Details | viscosity [mPa·s]
303.15 K, 100 kPa, x2 = 0.3003 | 1.535

CCCCCCCCCCC + CCCCC
viscosity [mPa·s]
Details | 293.15 K | 298.15 K | 303.15 K | 308.15 K | 313.15 K | 318.15 K | 323.15 K
100 kPa, x2 = 0.1034 | 1.033 | 0.957 | 0.887 | 0.825 | 0.77 | 0.721 | 0.677
100 kPa, x2 = 0.2018 | 0.906 | 0.842 | 0.784 | 0.732 | 0.686 | 0.645 | 0.607
100 kPa, x2 = 0.3079 | 0.774 | 0.723 | 0.676 | 0.634 | 0.597 | 0.563 | 0.531
100 kPa, x2 = 0.3996 | 0.689 | 0.645 | 0.606 | 0.571 | 0.538 | 0.509 | 0.483
100 kPa, x2 = 0.5027 | 0.594 | 0.556 | 0.523 | 0.494 | 0.468 | 0.444 | 0.422
100 kPa, x2 = 0.6106 | 0.488 | 0.461 | 0.437 | 0.415 | 0.395 | 0.376 | 0.366
100 kPa, x2 = 0.702 | 0.427 | 0.405 | 0.386 | 0.368 | 0.358 | – | –
100 kPa, x2 = 0.8003 | 0.359 | 0.341 | 0.324 | 0.308 | – | – | –
100 kPa, x2 = 0.8988 | 0.287 | 0.273 | 0.259 | – | – | – | –
101.33 kPa, x2 = 0.0962 | – | 0.9653 | – | – | – | – | –
101.33 kPa, x2 = 0.1826 | – | 0.8798 | – | – | – | – | –
101.33 kPa, x2 = 0.274 | – | 0.7841 | – | – | – | – | –
101.33 kPa, x2 = 0.368 | – | 0.6944 | – | – | – | – | –
101.33 kPa, x2 = 0.4834 | – | 0.5825 | – | – | – | – | –
101.33 kPa, x2 = 0.5738 | – | 0.5061 | – | – | – | – | –
101.33 kPa, x2 = 0.6599 | – | 0.4333 | – | – | – | – | –
101.33 kPa, x2 = 0.7461 | – | 0.3731 | – | – | – | – | –
101.33 kPa, x2 = 0.8967 | – | 0.2805 | – | – | – | – | –

CCCCCCCCCCC + CCCCCC
viscosity [mPa·s]
Details | 293.15 K | 298.15 K | 303.15 K | 308.15 K | 313.15 K | 318.15 K | 323.15 K
100 kPa, x2 = 0.1021 | 1.036 | 0.958 | 0.89 | 0.828 | 0.773 | 0.724 | 0.68
100 kPa, x2 = 0.1994 | 0.934 | 0.867 | 0.804 | 0.751 | 0.704 | 0.662 | 0.623
100 kPa, x2 = 0.306 | 0.819 | 0.763 | 0.712 | 0.668 | 0.627 | 0.591 | 0.558
100 kPa, x2 = 0.4014 | 0.731 | 0.684 | 0.64 | 0.602 | 0.567 | 0.535 | 0.507
100 kPa, x2 = 0.4991 | 0.646 | 0.606 | 0.57 | 0.538 | 0.508 | 0.481 | 0.456
100 kPa, x2 = 0.601 | 0.563 | 0.53 | 0.5 | 0.473 | 0.449 | 0.426 | 0.406
100 kPa, x2 = 0.7028 | 0.489 | 0.462 | 0.438 | 0.415 | 0.395 | 0.377 | 0.36
100 kPa, x2 = 0.7989 | 0.424 | 0.402 | 0.383 | 0.365 | 0.348 | 0.333 | 0.319
100 kPa, x2 = 0.9 | 0.364 | 0.347 | 0.331 | 0.315 | 0.302 | 0.292 | 0.28
101.33 kPa, x2 = 0.1036 | – | 0.963 | – | – | – | – | –
101.33 kPa, x2 = 0.1988 | – | 0.876 | – | – | – | – | –
101.33 kPa, x2 = 0.2999 | – | 0.7746 | – | – | – | – | –
101.33 kPa, x2 = 0.4051 | – | 0.6933 | – | – | – | – | –
101.33 kPa, x2 = 0.5076 | – | 0.609 | – | – | – | – | –
101.33 kPa, x2 = 0.606 | – | 0.5391 | – | – | – | – | –
101.33 kPa, x2 = 0.7068 | – | 0.4643 | – | – | – | – | –
101.33 kPa, x2 = 0.8048 | – | 0.4044 | – | – | – | – | –
101.33 kPa, x2 = 0.9022 | – | 0.3552 | – | – | – | – | –

CCCCCCCCCCC + CCCCCCC
viscosity [mPa·s]
Details | 100 kPa | 101.33 kPa
297.15 K, x2 = 0.5 | – | 0.6901
298.15 K, x2 = 0.1084 | – | 0.9818
298.15 K, x2 = 0.2093 | – | 0.8983
298.15 K, x2 = 0.3019 | – | 0.8173
298.15 K, x2 = 0.4051 | – | 0.7452
298.15 K, x2 = 0.5067 | – | 0.672
298.15 K, x2 = 0.6076 | – | 0.6072
298.15 K, x2 = 0.7041 | – | 0.5479
298.15 K, x2 = 0.8052 | – | 0.4894
298.15 K, x2 = 0.8998 | – | 0.4335
302.98 K, x2 = 0.8 | 0.4886 | –
303.09 K, x2 = 0.5 | 0.6364 | 0.6364
312.85 K, x2 = 0.5 | – | 0.563
323.04 K, x2 = 0.5 | 0.5009 | 0.5009

CCCCCCCCCCC + CCCCCCCC
298.15 K, 101.33 kPa
Details | viscosity [mPa·s]
x2 = 0.1011 | 1.012
x2 = 0.2077 | 0.9375
x2 = 0.3112 | 0.8621
x2 = 0.406 | 0.8112
x2 = 0.5073 | 0.7521
x2 = 0.6089 | 0.7019
x2 = 0.7063 | 0.645
x2 = 0.8047 | 0.6014
x2 = 0.9039 | 0.5503

CCCCCCCCCCC + CCCCCCCCC
298.15 K, 101.33 kPa
Details | viscosity [mPa·s]
x2 = 0.1034 | 1.03
x2 = 0.2088 | 0.9658
x2 = 0.3024 | 0.931
x2 = 0.4073 | 0.8929
x2 = 0.5057 | 0.8476
x2 = 0.6037 | 0.8141
x2 = 0.7055 | 0.77
x2 = 0.8002 | 0.7331
x2 = 0.9038 | 0.687

CCCCCCCCCCC + CCCCCCCCCC
298.15 K, 101.33 kPa
Details | viscosity [mPa·s]
x2 = 0.1074 | 1.056
x2 = 0.2094 | 1.03
x2 = 0.3054 | 1.009
x2 = 0.4086 | 0.9854
x2 = 0.5085 | 0.9556
x2 = 0.608 | 0.9393
x2 = 0.7092 | 0.9206
x2 = 0.8045 | 0.9013
x2 = 0.9056 | 0.868

CCCCCCCCCCC + CCCCCCCCCCCC
298.15 K, 101.33 kPa
Details | viscosity [mPa·s]
x1 = 0.106 | 1.314
x1 = 0.2057 | 1.297
x1 = 0.3093 | 1.253
x1 = 0.4136 | 1.236
x1 = 0.5553 | 1.196
x1 = 0.6095 | 1.175
x1 = 0.7174 | 1.143
x1 = 0.8145 | 1.126
x1 = 0.9084 | 1.11

CCCCCCCCCCC + CCCCCCCCCCCCCCCC
298.15 K, 101.33 kPa
Details | viscosity [mPa·s]
x1 = 0.1095 | 2.783
x1 = 0.2008 | 2.549
x1 = 0.3116 | 2.315
x1 = 0.4052 | 2.108
x1 = 0.5071 | 1.905
x1 = 0.6081 | 1.723
x1 = 0.7051 | 1.534
x1 = 0.806 | 1.363
x1 = 0.9031 | 1.209
